# Where two headings read alike, the source gives them in different places.
# Columns and labels:
# [1] = in vivo; cited from earlier work
# [2] = system: Plasmodium falciparum W-2; assay: In vitro antimalarial activity, semiautomated microdilution (hypoxanthine incorporation), W-2 clone; assay type: cell-based; conditions: for IC50: Plasmodium falciparum, read-out: In Vitro Antimalarial Activity IC50, W-2
# Protocol: (§1) The intrinsic antimalarial activities of deoxoartemisinin and various control drugs were quantitatively assessed by using modifications of the semiautomated microdilution method of Desjardins. Deoxoartemisinin was dissolved in DMSO and subsequently diluted in culture medium with 10% plasma. Equimolar starting concentrations were predetermined to generate well-defined concentration curves over a 64-fold range of dilutions. Microtiter plates prepared with serial dilutions of drug and parasite suspensions (at 0.5% parasitemia and 1.5% hematocrit) were incubated at 37° C. in an air-tight plexiglass box, which was flushed with 5% oxygen, 5% carbon dioxide, and 90% nitrogen. After 24 hours of incubation, cultures were labeled with tritiated hypoxanthine and incubated for an additional 18-20 hours prior to harvesting particulate matter on fiber glass strips. Hypoxanthine incorporation in each well was determined by scintillation spectrophotometry and served as an index of specific parasite growth rates. Computer-generated concentration-response curves were analyzed by non-linear regression, and 50% inhibitory concentrations were calculated for each drug. The antimalarial tests were conducted using cultures obtained from the Malaria Laboratory, Division of Experimental Therapeutics, WRAIR/WRAMC, Washington, D.C. The W-2 culture utilized in the testing of Example II was of Indochina origin, chloroquine-resistant and mefloquine-sensitive. The other culture D-6, used in the testing of Example II and reported in Table I, is of Sierra Leone origin, chloroquine-sensitive and mefloquine-resistant.
# (§2) Set out in Table I are the comparative results obtained from in vitro testing the activity of the inventive compound, known antimalarial compounds, artemisinin, and another derivative of artemisinin.
# [3] = background statement; cited from earlier work
# [4] = system: Plasmodium falciparum D-6; assay: In vitro antimalarial activity, semiautomated microdilution (hypoxanthine incorporation), D-6 clone; assay type: cell-based; conditions: for IC50: Plasmodium falciparum, read-out: In Vitro Antimalarial Activity IC50, D-6
# Protocol: as §1, §2
# [5] = Solubility and lipophilicity
# Plasmodium falciparum = assay: Antimalarial screening tests in vitro; assay type: cell-based; conditions: nonperoxy compounds
# Protocol: as §1, with “The W-2 culture utilized in the testing of Example II was of Indochina origin, chloroquine-resistant and mefloquine-sensitive. The other culture D-6, used in the testing of Example II and reported in Table I, is of Sierra Leone origin, chloroquine-sensitive and mefloquine-resistant.” left out
# [6] = W-2 clone, Indochina origin, chloroquine-resistant and mefloquine-sensitive
# [7] = D-6 clone, Sierra Leone origin, chloroquine-sensitive and mefloquine-resistant
SMILES,"IC50 [2, 6]","IC50 [4, 7]",IC50 [2],IC50 [4],other results
"C[C@@H]1CC[C@H]2[C@@H](C)C(=O)O[C@@H]3O[C@@]4(C)CC[C@@H]1[C@]32OO4 [Artemisinin, artemisinin]",1.21 ng/mL,2.33 ng/mL,,,side effects [1]: No side effects; solubility in water or oils [3]: only sparingly soluble in either water or oils
CCN(CC)CCCC(C)Nc1ccnc2cc(Cl)ccc12 (centres unmarked) [Chloroquine],,,55.7 ng/mL,2.69 ng/mL,
"CC1CCC2C(C)COC3OC4(C)CCC1C32OO4 (centres unmarked) [Deoxoartemisinin, deoxoartemisinin]",0.15 ng/mL,0.58 ng/mL,,,"antimalarial activity in vitro as compared to artemisinin, chloroquine-resistant malaria ([2]; against chloroquine-resistant malaria, relative to artemisinin): four; antimalarial activity in vitro as compared to artemisinin, chloroquine-sensitive malaria ([4]; against chloroquine-sensitive malaria, relative to artemisinin): approximately eight; solubility in organic solvents [5]: soluble in chloroform, diethylether, acetonitrile, cyclohexane and hexane"
"C[C@@H]1CC[C@H]2[C@@H](C)C(=O)O[C@@H]3O[C@@]4(C)CC[C@@H]1[C@]32O4 [Deoxyartemisinin, deoxyartemisinin]",,762 ng/mL,,,activity in the antimalarial screening tests (Plasmodium falciparum): failed to exhibit activity
OC(c1cc(C(F)(F)F)nc2c(C(F)(F)F)cccc12)C1CCCCN1 (centres unmarked) [Mefloquine],0.74 ng/mL,7.3 ng/mL,,,
CCc1nc(N)nc(N)c1-c1ccc(Cl)cc1 [Pyrimethamine],39.3 ng/mL,0.05 ng/mL,,,
C=C[C@H]1C[N@@]2CC[C@H]1C[C@H]2[C@H](O)c1ccnc2ccc(OC)cc12 [Quinine],,,59.7 ng/mL,10.8 ng/mL,
COc1ncnc(NS(=O)(=O)c2ccc(N)cc2)c1OC [Sulfadoxine],14300 ng/mL,16.4 ng/mL,,,
CN(C)[C@@H]1C(=O)C(C(N)=O)=C(O)[C@@]2(O)C(=O)C3=C(O)c4c(O)cccc4[C@@](C)(O)[C@H]3C[C@@H]12 [Tetracycline],,,10200 ng/mL,7230 ng/mL,

# Source: US5023353A, “Deoxoartemisinin: new compound and composition for the treatment of malaria” (priority 1990, dated 1991)
